# Measurements as given in patent US8883841B2, “Oncogenic ras-specific cytotoxic compound and methods of use thereof” (The Board of Regents of the University of Texas System, priority 2005, dated 2014).
# Like-named read-outs stand apart in the source and are kept apart here.
# Experiments:
# NCI-H226 = experiment: NCI in-vitro testing, NCI-H226 (Non-Small Cell Lung Cancer)
# COLO 205 = experiment: NCI in-vitro testing, COLO 205 (Colon Cancer)
# SK-MEL-5 = experiment: NCI in-vitro testing, SK-MEL-5 (Melanoma)
# NCI-H460 = experiment: NCI in-vitro testing, NCI-H460 (Non-Small Cell Lung Cancer)
# CAKI-1 = experiment: NCI in-vitro testing, CAKI-1 (Renal Cancer); conditions: for Percent Growth: CAK1-1
# SNB-19 = experiment: NCI in-vitro testing, SNB-19 (CNS Cancer)
# OVCAR-4 = experiment: NCI in-vitro testing, OVCAR-4 (Ovarian Cancer)
# SKOV3 = experiment: Cell viability, SKOV3 ovary cancer cells; format: cell-based; conditions: Homo sapiens, SK-OV-3
# HOP-92 = experiment: NCI in-vitro testing, HOP-92 (Non-Small Cell Lung Cancer)
# UO-31 = experiment: NCI in-vitro testing, UO-31 (Renal Cancer)
# HS 578T = experiment: NCI in-vitro testing, HS 578T (Breast Cancer)
smiles,measurement,setting,value
"OCc1cn(Cc2ccc(Cl)cc2)c2ccccc12 [Oncrasin K060, 1H-Indole-3-methanol, 1-[(4-chlorophenyl)methyl]-]",GI50,"NCI-H226; Homo sapiens, NCI-H226",< 0.01 µM
same,CC50,"NCI-H226; Homo sapiens, NCI-H226, read-out: LC50",0.501 µM
same,GI50,"NCI-H226; Homo sapiens, NCI-H226, read-out: Log10 GI50 (converted)",< 0.01 µM
same,TGI,NCI-H226; NCI-H226,4.48E−8 Molar
same,Percent Growth,"NCI-H226; NCI-H226, Log10 Concentration −4.0 Molar",−65%
same,Percent Growth,"NCI-H226; NCI-H226, Log10 Concentration −5.0 Molar",−68%
same,Percent Growth,"NCI-H226; NCI-H226, Log10 Concentration −6.0 Molar",−82%
same,Percent Growth,"NCI-H226; NCI-H226, Log10 Concentration −7.0 Molar",−22%
same,Percent Growth,"NCI-H226; NCI-H226, Log10 Concentration −8.0 Molar",40%
same,TGI,COLO 205; COLO 205,1.58E−5 Molar
same,Percent Growth,"COLO 205; COLO 205, Log10 Concentration −4.0 Molar",−72%
same,Percent Growth,"COLO 205; COLO 205, Log10 Concentration −5.0 Molar",18%
same,Percent Growth,"COLO 205; COLO 205, Log10 Concentration −6.0 Molar",61%
same,Percent Growth,"COLO 205; COLO 205, Log10 Concentration −7.0 Molar",93%
same,Percent Growth,"COLO 205; COLO 205, Log10 Concentration −8.0 Molar",98%
same,GI50,"COLO 205; Homo sapiens, COLO 205",1.05 µM
same,CC50,"COLO 205; Homo sapiens, COLO 205, read-out: LC50",56.9 µM
same,GI50,"COLO 205; Homo sapiens, COLO 205, read-out: Log10 GI50 (converted)",1.05 µM
same,GI50,"SK-MEL-5; Homo sapiens, SK-MEL-5",4.97 µM
same,CC50,"SK-MEL-5; Homo sapiens, SK-MEL-5, read-out: LC50",45.5 µM
same,GI50,"SK-MEL-5; Homo sapiens, SK-MEL-5, read-out: Log10 GI50 (converted)",5.01 µM
same,TGI,SK-MEL-5; SK-MEL-5,1.95E−5 Molar
same,Percent Growth,"SK-MEL-5; SK-MEL-5, Log10 Concentration −4.0 Molar",−97%
same,Percent Growth,"SK-MEL-5; SK-MEL-5, Log10 Concentration −5.0 Molar",40%
same,Percent Growth,"SK-MEL-5; SK-MEL-5, Log10 Concentration −6.0 Molar",74%
same,Percent Growth,"SK-MEL-5; SK-MEL-5, Log10 Concentration −7.0 Molar",92%
same,Percent Growth,"SK-MEL-5; SK-MEL-5, Log10 Concentration −8.0 Molar",95%
same,TGI,NCI-H460,3.79E−5 Molar
same,GI50,"NCI-H460; Homo sapiens, NCI-H460",0.0888 µM
same,CC50,"NCI-H460; Homo sapiens, NCI-H460, read-out: LC50",> 100 µM
same,GI50,"NCI-H460; Homo sapiens, NCI-H460, read-out: Log10 GI50 (converted)",0.0891 µM
same,Percent Growth,NCI-H460; Log10 Concentration −4.0 Molar,−9%
same,Percent Growth,NCI-H460; Log10 Concentration −5.0 Molar,13%
same,Percent Growth,NCI-H460; Log10 Concentration −6.0 Molar,20%
same,Percent Growth,NCI-H460; Log10 Concentration −7.0 Molar,48%
same,Percent Growth,NCI-H460; Log10 Concentration −8.0 Molar,79%
same,Percent Growth,CAKI-1; Log10 Concentration −4.0 Molar,1%
same,Percent Growth,CAKI-1; Log10 Concentration −5.0 Molar,−47%
same,Percent Growth,CAKI-1; Log10 Concentration −6.0 Molar,−21%
same,Percent Growth,CAKI-1; Log10 Concentration −7.0 Molar,−3%
same,Percent Growth,CAKI-1; Log10 Concentration −8.0 Molar,1%
same,GI50,"CAKI-1; Homo sapiens, CAKI-1",< 0.01 µM
same,CC50,"CAKI-1; Homo sapiens, CAKI-1, read-out: LC50",> 100 µM
same,GI50,"CAKI-1; Homo sapiens, CAKI-1, read-out: Log10 GI50 (converted)",< 0.01 µM
same,GI50,"SNB-19; Homo sapiens, SNB-19",17.6 µM
same,CC50,"SNB-19; Homo sapiens, SNB-19, read-out: LC50",> 100 µM
same,GI50,"SNB-19; Homo sapiens, SNB-19, read-out: Log10 GI50 (converted)",17.8 µM
same,TGI,SNB-19; SNB-19,5.69E−5 Molar
same,Percent Growth,"SNB-19; SNB-19, Log10 Concentration −4.0 Molar",−24%
same,Percent Growth,"SNB-19; SNB-19, Log10 Concentration −5.0 Molar",74%
same,Percent Growth,"SNB-19; SNB-19, Log10 Concentration −6.0 Molar",91%
same,Percent Growth,"SNB-19; SNB-19, Log10 Concentration −7.0 Molar",97%
same,Percent Growth,"SNB-19; SNB-19, Log10 Concentration −8.0 Molar",103%
same,GI50,"OVCAR-4; Homo sapiens, OVCAR-4",0.34 µM
same,CC50,"OVCAR-4; Homo sapiens, OVCAR-4, read-out: LC50",> 100 µM
same,GI50,"OVCAR-4; Homo sapiens, OVCAR-4, read-out: Log10 GI50 (converted)",0.339 µM
same,TGI,OVCAR-4; OVCAR-4,1.80E−5 Molar
same,Percent Growth,"OVCAR-4; OVCAR-4, Log10 Concentration −4.0 Molar",−29%
same,Percent Growth,"OVCAR-4; OVCAR-4, Log10 Concentration −5.0 Molar",10%
same,Percent Growth,"OVCAR-4; OVCAR-4, Log10 Concentration −6.0 Molar",31%
same,Percent Growth,"OVCAR-4; OVCAR-4, Log10 Concentration −7.0 Molar",71%
same,Percent Growth,"OVCAR-4; OVCAR-4, Log10 Concentration −8.0 Molar",94%
same,IC50,SKOV3,0.631 µM
same,TGI,HOP-92; HOP-92,2.39E−5 Molar
same,Percent Growth,"HOP-92; HOP-92, Log10 Concentration −4.0 Molar",−60%
same,Percent Growth,"HOP-92; HOP-92, Log10 Concentration −5.0 Molar",34%
same,Percent Growth,"HOP-92; HOP-92, Log10 Concentration −6.0 Molar",88%
same,Percent Growth,"HOP-92; HOP-92, Log10 Concentration −7.0 Molar",81%
same,Percent Growth,"HOP-92; HOP-92, Log10 Concentration −8.0 Molar",97%
same,GI50,"HOP-92; Homo sapiens, HOP-92",5.17 µM
same,CC50,"HOP-92; Homo sapiens, HOP-92, read-out: LC50",77.6 µM
same,GI50,"HOP-92; Homo sapiens, HOP-92, read-out: Log10 GI50 (converted)",5.13 µM
same,GI50,"UO-31; Homo sapiens, UO-31",1.58 µM
same,CC50,"UO-31; Homo sapiens, UO-31, read-out: LC50",> 100 µM
same,GI50,"UO-31; Homo sapiens, UO-31, read-out: Log10 GI50 (converted)",1.58 µM
same,TGI,UO-31; UO-31,1.55E−5 Molar
same,Percent Growth,"UO-31; UO-31, Log10 Concentration −4.0 Molar",−42%
same,Percent Growth,"UO-31; UO-31, Log10 Concentration −5.0 Molar",10%
same,Percent Growth,"UO-31; UO-31, Log10 Concentration −6.0 Molar",60%
same,Percent Growth,"UO-31; UO-31, Log10 Concentration −7.0 Molar",80%
same,Percent Growth,"UO-31; UO-31, Log10 Concentration −8.0 Molar",90%
same,TGI,HS 578T,2.75E−5 Molar
same,GI50,"HS 578T; Homo sapiens, Hs-578T",46.8 µM
same,CC50,"HS 578T; Homo sapiens, Hs-578T, read-out: LC50",> 100 µM
same,GI50,"HS 578T; Homo sapiens, Hs-578T, read-out: Log10 GI50 (converted)",4.68 µM
